Reference: PubChem BioAssay AID651563 (Sanford-Burnham Center for Chemical Genomics, 2012)
Values joined by “and” are separate entries in the source; they are usually repeats but may differ in a detail not shown here. Equal values may be shown once. Active and inactive are the calls of the source.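 Rule for the calls: active = compounds whose IC50 is 20 micromolar or lower, counted as confirmed SKN-1 reporter blockers; inactive = the rest.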

tested on: C. elegans VP596 Pgst-4::GFP/RFP ratio, acrylamide, 24 h; assay: C. elegans gst-4 reporter suppression, concentration series – whole organism, GFP/RFP fluorescence ratio, set 2, strain VP596, SKN-1 inhibitor project, dose response (AID 651563);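 note: red signal is driven by the dop-3 promoter and serves as the normalizer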

Row | SMILES | IC50
1 | CCOc1cc(CNC2CCCC2)cc(Cl)c1OCc1ccc(F)cc1 | 2.85 µM
2 | O=C(Nc1nc(-c2ccc(Cl)s2)cs1)c1ccco1 | 15.5 µM
3 | O=C1/C(=C/c2ccccc2)CCCc2ccccc21 | 31.6 µM (inactive)
4 | Clc1ccc(-c2nc3cc(CN4CCCCC4)ccc3o2)cc1 | 87.7 µM (inactive)
5 | COC(=O)c1c(-c2ccccc2)noc1-c1ccccc1 | 49.3 µM (inactive)
6 | CCCCOC(=O)Nc1ccc(N2CCCCC2)cc1 | 38.8 µM (inactive)
7 | Clc1ccc(-c2cc(CSc3ccccc3)on2)cc1 | > 100 µM (inactive)
8 | O=C(Nc1ccc(OC(F)F)c(Cl)c1)c1ccccn1 | 5.09 µM
9 | CSc1cccc(NC(=O)c2cccc3cccnc23)c1 | 12.7 µM
10 | CCN(CC)c1ccc(/C=C2\C(=O)c3ccc(C(=O)O)cc3C2=O)cc1 | 12.2 µM
11 | O=C(NC(=S)Nc1ccc(CN2CCCCC2)cc1)c1cc2ccccc2o1 | 94.9 µM (inactive)
12 | O=[N+]([O-])c1cccc(-c2c(-c3ccccc3)ncc3cc(F)ccc23)c1 | > 100 µM (inactive)
13 | COc1cc(CNC(C)c2ccccc2)cc(Br)c1OCc1ccc(F)cc1 (stereo not drawn) | 9.1 µM
14 | Clc1ccc(N2CCN(c3ccnc(Cl)n3)CC2)cc1 | 17.7 µM
15 | FCCCOc1ccc(-c2nccc(-c3ccccn3)n2)cc1 | 25.6 µM (inactive)
16 | Clc1ccc(-c2nnc(-c3ccccc3)o2)c(Cl)c1 | 1.46 µM
17 | CCN(CC)c1ccc(/C=C2/C(=O)c3ccc(C(=O)O)cc3C2=O)cc1 | 11.9 µM
18 | CC(=O)NS(=O)(=O)c1ccc(Nc2ccc([N+](=O)[O-])c3nonc23)cc1 | 57.9 µM (inactive)
19 | Clc1ccc(-c2nnc(-c3ccccc3)o2)cn1 | > 100 µM (inactive)
20 | Cc1nc2ccccc2cc1OCc1ccc(F)cc1 | 24 µM (inactive)
21 | CCCCCCCCNc1ncnc2ccccc12 | > 100 µM (inactive)
22 | Fc1ccc(-c2csc(Nc3ccccn3)n2)cc1 | 7.01 µM
23 | CN1CCN(c2ccc(NC(=O)c3ccc(Oc4ccccc4)cc3)cc2)CC1 | 12.5 µM
24 | O=C(Sc1ccc(Cl)cc1)c1ccccn1 | > 100 µM (inactive)

Row | SMILES | IC50
25 | O=C1c2cc(Br)ccc2OC2C=CC=CC12 (stereo not drawn) | > 100 µM (inactive)
26 | Clc1ccc(Nc2nc(-c3cccs3)cs2)nc1 | 11.5 µM
27 | CCn1nccc1C(=O)Nc1ccc(Cl)c(Cl)c1 | 87.8 µM (inactive)
28 | COc1ccc(C(=O)Nc2nc(-c3cccs3)cs2)cc1 | 24.6 µM (inactive)
29 | c1ccc(SCc2cc(-c3ccccc3)no2)cc1 | 12.8 µM
30 | CC(C)c1ccc(C(=O)Nc2ccc(CN3CCOCC3)cc2)cc1 | 4.79 µM
31 | O=C(Nc1ccc(Cl)c(C(F)(F)F)c1)c1ccco1 | 64.4 µM (inactive)
32 | Cc1ccccc1-c1noc(-c2cccs2)n1 | 9.31 µM
33 | O=C1/C(=C/c2cccs2)CCc2ccccc21 | 34.3 µM (inactive)
34 | CC(C)c1ccc(-c2nc3ccccc3s2)cc1 | > 100 µM (inactive)
35 | CCCCOc1ccc(C(=O)OC2CC(C)N(C)CC2C)cc1 (stereo not drawn) | 29.2 µM (inactive)
36 | O=[N+]([O-])c1ccc(COc2ccc(CN3CCCCC3)cc2)cc1 | 8.89 µM
37 | CCSc1nnc(-c2ccc(Cl)cc2Cl)o1 | 58.5 µM (inactive)
38 | Clc1cccc(CSc2ncn(-c3ccccc3)n2)c1 | 37.5 µM (inactive)
39 | CCN(CC)Cc1ccc(NC(=O)c2sc3cc(Cl)ccc3c2Cl)cc1 | 13.8 µM
40 | O=C(C=Cc1ccccc1)CC(c1ccccc1)N1CCOCC1 (stereo not drawn) | 10.2 µM
41 | O=C(Nc1nccs1)c1ccc2ccccc2n1 | 15.8 µM
42 | Clc1ccccc1-c1nnc(-c2ccccc2Cl)o1 | 1.79 µM
43 | CCCn1nc2cc(C(=O)NCc3ccc(OC(F)(F)F)cc3)ccc2c1OCC | 25.4 µM (inactive)
44 | CCc1nc2c(OCc3ccc(C(F)(F)F)cc3)cccn2c1N(C)C(=O)c1ccncc1 | 3.57 µM
45 | Clc1ccccc1-c1nc(-c2ccncc2)no1 | 18.4 µM and > 100 µM (inactive)
46 | Fc1ccc(Nc2cccc3nccnc23)cc1 | 47.2 µM (inactive)
47 | CCCCOC(=O)Nc1ccc(C(C)C)cc1 | 76.2 µM (inactive)
48 | Clc1ccc(C#Cc2cccnc2)cc1 | 19.5 µM
